Reference: patent US4157400A, “Terpenophenoxyalkylamines and pharmaceutical compositions and uses thereof” (MAR-PHA, Societe d'Etude et d'Exploitation de Marques, priority 1976, dated 1979)
≈ marks a conversion by molar mass, not a printed value.

Columns and labels:
[1] = system: removed duodenum of the rat, spasms induced by barium chloride; experiment: Spasmolytic activity on the detached duodenum of the rat, musculotrope (versus BaCl2; Magnus)
Excerpt: (§1) The spasmolytic neurotropes inhibit the contractions of the organ caused by acetylcholine,whereas the musculotropes prevent the spasms induced by barium chloride. The following table summarises the results expressed as a 50% effective concentration (EC50) in mg/l.

[2] = system: tachycardia induced by isoproterenol; experiment: Beta-sympatholytic activity: antagonism of isoproterenol-induced tachycardia in the non-anesthetized rabbit; type: in vivo; settings: for Maximum Inhibition of tachycardia (as a %): isoproterenol 0.010 mg/kg i.v.
Description: The technique consists of evaluating the antagonism exerted by the products with regard to induced tachycardia, in an alert rabbit, by a sympatho-stimulant agent, isoproterenol, administered in a dose of 0.010 mg/kg intravenously. The animal is placed in a restraining box and the marginal vein of the ear is catheterized. The animal's electrocardiogram is picked up by two electrodes implanted in shunt DII and connected to a telemetric transmitter. A polygraph, coupled to a receiver, simultaneously records the electrocardiogram and the cardiac rhythm by integration of the waves R.
First of all, one makes certain of the stability and reproducibility of isoprenalinic tachycardia and the substance to be studied is administered. In the case of intravenous administration of the products, the injections of isoproterenol are then repeated 5 minutes later, then every 15 minutes, until the tachycardia returns to its initial intensity. When the products are administered orally, the injections of the beta-stimulant are repeated 15, 30, 45 and 60 minutes, then 2, 3, 5, 24 and 48 hours afterwards.
The beta-sympatholytic activity is expressed by the maximum percentage decrease of the tachycardia induced by isoproterenol. The total duration of the effect is also noted.

rabbit's heart = experiment: Coronaro-dilatory activity on the isolated rabbit heart (technique derived from Langendorff)
Description: In this technique, the survival liquid perfusing the heart contains 0.5 I.U./l post-hypophysis intended for permanently maintaining a slight vaso-constriction of the coronary vascular system. The products to be studied are administered in the region of the aortic canal in a volume of 1 cm^3 over a period of 1 minute. The results are expressed as a percentage variation of the coronary output after the injection of the product with respect to the initial output, the output being measured by integration of the frequency of drops of survival liquid escaping from the heart after having passed through the coronary system.

[3] = system: removed duodenum of the rat, contractions caused by acetylcholine; experiment: Spasmolytic activity on the detached duodenum of the rat, neurotrope (versus acetylcholine; Magnus)
Excerpt: as §1

[4] = Acute toxicity in the mouse (LD50); settings: in vivo, male CD1 mouse, 3 days observation
Description: Acute toxicities of the compounds according to the invention have been determined in the male mouse CD1 (Charles RIVER) both intravenously and orally. The LD50 were calculated after observation for 3 days by the method of REED, JJ. and MUENCH, H. (Am. J. Hy, 27 493, 1938).

Compound	EC50 [1] [µg/mL]	Duration of Inhibiting effect ([2]; intravenous dose 0.5 mg/kg)	Maximum Inhibition of tachycardia (as a %) ([2]; intravenous dose 0.5 mg/kg) [%]	Duration of Inhibiting effect ([2]; intravenous dose 1 mg/kg)	Maximum Inhibition of tachycardia (as a %) ([2]; intravenous dose 1 mg/kg) [%]	Duration of Inhibiting effect ([2]; oral dose 17.5 mg/kg)	Maximum Inhibition of tachycardia (as a %) ([2]; oral dose 17.5 mg/kg) [%]	Duration of Inhibiting effect ([2]; oral dose 35 mg/kg)	Maximum Inhibition of tachycardia (as a %) ([2]; oral dose 35 mg/kg) [%]	Duration of Inhibiting effect ([2]; oral dose 75 mg/kg)	Maximum Inhibition of tachycardia (as a %) ([2]; oral dose 75 mg/kg) [%]	Duration of Inhibiting effect ([2]; oral dose 150 mg/kg)	Maximum Inhibition of tachycardia (as a %) ([2]; oral dose 150 mg/kg) [%]	EC50 [3] [µg/mL]	LD50 at 72 h ([4]; iv, intravenously) [mg/kg]	LD50 at 72 h ([4]; po, orally) [mg/kg]	further results
CC(C)NCC(O)COc1ccccc1[C@@H]1C[C@H]2CC[C@@H]1C2 (relative stereo) [Example 1, 1-isopropylamino-3-[2-(2-norbornyl exo)phenoxy]propan-2-ol]	0.15 (≈ 0.494 µM)	more than 2 hrs	54	more than 2 hrs	86	approx. 24 hrs	73	approx. 48 hrs	88	approx. 48 hrs	80	more than 48 hrs	82	0.18 (≈ 0.593 µM)	60	800	Duration of Inhibiting effect ([2]; intravenous dose 0.1 mg/kg): approx. 50 minutes; Maximum Inhibition of tachycardia (as a %) ([2]; intravenous dose 0.1 mg/kg): 24%; Duration of Inhibiting effect ([2]; intravenous dose 0.3 mg/kg): approx 21/2; Maximum Inhibition of tachycardia (as a %) ([2]; intravenous dose 0.3 mg/kg): 67%; Duration of Inhibiting effect ([2]; oral dose 9 mg/kg): more than 3 hrs; Maximum Inhibition of tachycardia (as a %) ([2]; oral dose 9 mg/kg): 40%; activation at 0.003 µg/mL (rabbit's heart; Oryctolagus cuniculus, dose 0.003 mg/l, increase (+) versus initial output, post-hypophysis 0.5 I.U./l, read-out: % Variation of coronary output): 13%; activation at 0.01 µg/mL (rabbit's heart; Oryctolagus cuniculus, dose 0.010 mg/l, increase (+) versus initial output, post-hypophysis 0.5 I.U./l, read-out: % Variation of coronary output): 57%; activation at 0.03 µg/mL (rabbit's heart; Oryctolagus cuniculus, dose 0.030 mg/l, increase (+) versus initial output, post-hypophysis 0.5 I.U./l, read-out: % Variation of coronary output): 133%; activation at 0.1 µg/mL (rabbit's heart; Oryctolagus cuniculus, dose 0.100 mg/l, increase (+) versus initial output, post-hypophysis 0.5 I.U./l, read-out: % Variation of coronary output): 225%; Duration of the effect (rabbit's heart; dose 0.003 mg/l): 3 min; Duration of the effect (rabbit's heart; dose 0.010 mg/l): 3 min; Duration of the effect (rabbit's heart; dose 0.030 mg/l): 15 min; Duration of the effect (rabbit's heart; dose 0.100 mg/l): 9 min; coronaro-dilatory effects (in words) (rabbit's heart; isolated rabbit heart): considerable coronaro-dilatory effects, whose intensity and duration clearly increase with the concentration
CC(C)NCC(O)COc1ccccc1[C@H]1C[C@H]2CC[C@@H]1C2 (relative stereo) [Example 2, 1-isopropylamino-3-[2-(2-norbornyl endo)phenoxy]propan-2-ol]	0.04 (≈ 0.132 µM)	approx. 40 mins	20	approx. 4 hrs	67	approx. 24 hrs	64	approx. 48 hrs	60	approx. 48 hrs	80	approx. 48 hrs	81	0.3 (≈ 0.989 µM)	62	675	–
